Values joined by “and” are separate entries in the source; they are usually repeats but may differ in a detail not shown here. Equal values may be shown once. Read-outs that look alike come from different tables or passages of the source. Marks after values point to notes of the source that are not given here. Bridge positions count the residues as written; N and C are the ends. Square brackets hold non-standard residues; d marks the D form. Peptide text beside a SMILES is read from it. Trp(1-Me) = Cn1cc(C[C@H](N)C(=O)O)c2ccccc21
Legend:
[1] = test system: complement alternative pathway (AP); experiment: C5b-9 ELISA (inhibition of C5b-9 terminal complex formation); assay type: biochemical, human
Protocol: Inhibition of the complement alternative pathway (AP) by compstatin family peptides was assayed by ELISA. Peptides were dissolved in phosphate buffered saline (PBS, 150 mM). Initial peptide concentrations were calculated using the Beer-Lambert Law with an extinction coefficient of 5,500 (1/M·cm) for Trp and 5,470 (1/M·cm) for methylated-Trp present in the sequence, at 280 nm. Nunc Maxisorp 96-well plates were coated with 1 μg lipopolysaccharides (LPS) from Salmonella enteriditis for ˜16 h at room temperature. Plates were washed three times with PBS/0.05% Tween-20 (PBS-T) between each step. Plates were blocked with 4% bovine serum albumin (BSA) in PBS-T for 1 h at 37° C. Serial peptide dilutions were performed in 96-well plates, using gelatin veronal-buffered saline with 5 mM MgCl2 and 10 mM EGTA (GVBS-MgEGTA). Normal human serum (Complement Technology Inc., Tyler, Tex., USA) was diluted in GVBS-MgEGTA and mixed with compstatin serial dilutions to a final concentration of 30%. Serum diluted in GVBS-MgEGTA and GVBS (containing 20 mM EDTA) were used as positive and negative controls for complement activation, respectively. Dilutions were preincubated for 15 minutes at room temperature, transferred to ELISA plates, and incubated for 1 h at 37° C. Generation of C3b and C5b-9 were assayed using horseradish peroxidase (HRP)-conjugated anti-C3 (MP Biomedicals, Solon, Ohio, USA) and anti-05b-9 aEll (Abcam, Cambridge, Mass., USA), respectively. Plates were washed and incubated with either anti-C3-HRP (1:5000 in 1% BSA/PBS-T) or anti-05b-9 (1:1000 in 1% BSA/PBS-T) for 1 h at 37° C. For C5b-9 detection, primary antibody incubation was followed by incubation with anti-mouse-HRP (BioRad, Hercules, Calif., USA) for 1 h at 37° C. (1:5000 in 1% BSA/PBS-T). Bound C3b and C5b-9 were quantified using a 3,3′,5,5′-tetramethylbenzidine substrate solution containing urea hydrogen peroxide in 0.11 M sodium acetate buffer, followed by a 1 N H2SO4 acid stop. Plates were measured spectrophotometrically at 450 nm. Percent inhibition of C3b and C5b-9 deposition was plotted against peptide concentration and the data was fitted to a logistic dose response curve with Prism software (GraphPad, San Diego, Calif., USA) to determine IC50 values.
In all assays, MgEGTA was used to chelate Ca′ ions required for classical/lectin pathway complement activation, while providing Mg′ necessary for AP activation. ELISAs allow for direct detection of C3b and C5b-9 formed during AP activation, while erythrocyte lysis assays provide a functional assessment of AP-mediated hemolysis in serum. […] Table 9 summarizes the IC50 values derived from the three different assays. […] The relative potencies of the peptides, based on the measured ICH values, are consistent across all three assays (Peptide III˜Peptide VI˜Peptide IX>Peptide I>Parent). Based on the assay conditions used in this study, peptides inhibited C5b-9 formation with moderately better efficacy than formation of C3b, while slightly higher concentrations were necessary to inhibit AP-mediated hemolysis.

soluble C5b-9 = experiment: Soluble C5b-9 ELISA of the RPE cell-based assay medium; set-up: species or system human; conditions: peptide 1 μM; for soluble C5b-9 in assay medium relative to positive control: 10% human complement serum, ~24 hrs, mean±S.E.M., three donors; for Assay medium C5b-9 ELISA % of positive control: RPE cell assay medium, Mean (S.E.M.)
Protocol: The in vitro drusen biogenesis model was employed. Human fetal RPE cells (Advanced Bioscience Resources, Alameda, Calif.) were cultured on Millipore HA porous supports (Millipore, Cat # PIHA 01250) in Miller medium (Maminishkis et al., 2006) supplemented with 5% fetal calf serum (FCS). Cultures derived from three different donor eyes were employed. Cells were rinsed with warm, sterile PBS and the insert membrane was excised with a scalpel and cut into small (˜4 mm^2) pieces which were placed in wells of a 96-well plate. To minimize effects of inter-culture variability, samples prepared from a single membrane were utilized for each experiment. The samples were rinsed in PBS and then exposed individually to the library of compstatin family peptides at 1 μM in FCS-free Miller medium containing 10% human complement serum (Innovative Research, Cat # IPLA-CSER AB, Lot # L12402). In preliminary experiments, compstatin family Peptides I, III, VI, VII, VIII, IX, and Parent (Table 7), were tested in the RPE cell assay at 100 μM and titrated by C5b-9 ELISA over a concentration range of 0.04-130 μM. […] Also from this assessment, Peptide VI, as well as Peptides I and III, were selected for further studies. Peptides I and III were chosen for comparative studies to Peptide VI, because they contain an arginine residue at position 1. The goal was to determine whether peptides containing arginine at position −1 (Peptide VI) or at position 1 (Peptides I and III) were potent complement inhibitors using the RPE cell assay and had improved aqueous solubility compared to previously known potent analogs. Negative control cells were exposed to Miller medium+5% FCS; positive control cells were exposed to Miller medium+10% human complement serum without inhibitory peptides. Experimental and control medium/inhibitor solutions were pre-mixed on a rocker at room temperature for 30 min, then warmed to 37° C., prior to placement on the samples and incubation for ˜24 hrs at 37° C. in a 7.0% CO2 incubator. Following the incubation period, the medium was removed and stored frozen prior to ELISA analysis. The cell/membrane samples were rinsed in PBS, fixed in cold 4% paraformaldehyde (PFA) in PBS for 20 min, and stored in 0.4% PFA until use in immunohistochemical assays.
Soluble C5b-9 ELISA of the RPE Cell-Based Assay Medium.
Experimental medium solutions were diluted 1/625 in assay diluent and quadruplicate ELISAs were performed using an OptEIA C5b-9 ELISA kit (BD Biosciences, Cat #558315). Plates were read at 450 nm, with absorbance at 570 nm subtracted for wavelength correction, on a BioRad Benchmark plate reader. C5b-9 concentrations were calculated using a standard curve generated using purified human C5b-9. Data was expressed as a percentage relative to the positive (human serum only) control. Means and standard errors for data from the three RPE donor cells were calculated and graphed using SigmaPlot 11.0 (Systat Software, San Jose, Calif.), and one-way ANOVA was calculated using Tukey's test for multiple comparisons.

[2] = Table 9, means from three independent experiments, read-out: IC50, C5b-9 ELISA
[3] = table 13, read-out: C5b-9 ELISA IC50

| SMILES | inhibition less than other peptides ([1]; C5b-9 inhibition in ELISA, versus Peptides I, III, VI, IX) | IC50 [1, 2] | IC50 [1, 3] | soluble C5b-9 in assay medium relative to positive control (soluble C5b-9) | Assay medium C5b-9 ELISA % of positive control (soluble C5b-9) |
| --- | --- | --- | --- | --- | --- |
| CC[C@H](C)[C@H](N)C(=O)N[C@H]1CSSC[C@@H](C(=O)N[C@H](C(N)=O)[C@@H](C)O)NC(=O)[C@H](CCCN=C(N)N)NC(=O)[C@H](Cc2cnc[nH]2)NC(=O)[C@H](Cc2cnc[nH]2)NC(=O)CNC(=O)[C@H](Cc2c[nH]c3ccccc23)NC(=O)[C@H](CC(=O)O)NC(=O)[C@H](CCC(N)=O)NC(=O)[C@H](C(C)C)NC(=O)[C@H](C(C)C)NC1=O [Parent, ICV VQDWGH HRCT-NH2, reference compound] | 10- to 15 fold | 18600 nM | 18600 nM and 12600 nM | 88.5±0.76% | 88.49 (0.76) % of positive control |
| CC(=O)N[C@@H](CCCNC(=N)N)C(=O)N[C@H]1CSSC[C@@H](C(=O)N[C@H](C(N)=O)[C@@H](C)O)NC(=O)[C@H](CCCNC(=N)N)NC(=O)[C@H](Cc2c[nH]cn2)NC(=O)[C@H](C)NC(=O)CNC(=O)[C@H](Cc2c[nH]c3ccccc23)NC(=O)[C@H](CC(=O)O)NC(=O)[C@H](CCC(N)=O)NC(=O)[C@H](Cc2c[nH]c3ccccc23)NC(=O)[C@H](C(C)C)NC1=O [Peptide I, Ac- RCV WQDWGA HRCT-NH2] (Ac-RCVWQDWGAHRCT-NH2; disulfide 2-12) | – | 2020 nM | 1000 nM and 2000 nM | 61.4±2.3% | 61.37 (2.34)^a % of positive control |
| CC(=O)N[C@@H](CCCNC(=N)N)C(=O)N[C@H]1CSSC[C@@H](C(=O)N[C@H](C(N)=O)[C@@H](C)O)NC(=O)[C@H](CCCNC(=N)N)NC(=O)[C@H](Cc2c[nH]cn2)NC(=O)[C@H](C)NC(=O)CNC(=O)[C@H](Cc2c[nH]c3ccccc23)NC(=O)[C@H](CC(=O)O)NC(=O)[C@H](CCC(N)=O)NC(=O)[C@H](Cc2cn(C)c3ccccc23)NC(=O)[C@H](C(C)C)NC1=O [Peptide III, Ac- RCV meWQDWGA HRCT-NH2] (Ac-RCV[Trp(1-Me)]QDWGAHRCT-NH2; disulfide 2-12) | – | 1070 nM | 600 nM and 1100 nM | 50.0±0.8% | 50.02 (0.82) % of positive control |
| CC[C@H](C)[C@H](NC(=O)[C@H](CO)NC(=O)[C@H](CCCNC(=N)N)NC(C)=O)C(=O)N[C@H]1CSSC[C@@H](C(=O)N[C@H](C(N)=O)[C@@H](C)O)NC(=O)[C@H](CCCNC(=N)N)NC(=O)[C@H](Cc2c[nH]cn2)NC(=O)[C@H](C)NC(=O)CNC(=O)[C@H](Cc2c[nH]c3ccccc23)NC(=O)[C@H](CC(=O)O)NC(=O)[C@H](CCC(N)=O)NC(=O)[C@H](Cc2cn(C)c3ccccc23)NC(=O)[C@H](C(C)C)NC1=O [Peptide VI, Ac-RS-ICV meWQDWGA HRCT-NH2] | – | 1130 nM | 600 nM and 1100 nM | 44.6±3.2% | 44.60 (3.16) % of positive control |
